The values that follow come from US10167299B2, “1-(3-aminopropyl) substituted cyclic amine compounds, preparation method therefor, and pharmaceutical compositions and uses thereof” (SHANGHAI INSTITUTE OF MATERIA MEDICA, CHINESE ACADEMY OF …, priority 2013, dated 2019).

One data set relates to CCR5 protein. Nature of the data set: Thermal stability of protein test (CPM-assay). The note with it: for Tm (° C.): thermal stability of CCR5 protein with compound, CPM dye. It counts as binding. From the text:
Experimental theory: many cysteines are present in CCR5 protein sequence. Cysteines located in loop region form disulfide bonds to stabilize the tertiary structure of the protein. Some free cysteines in reduced state are located in the transmembrane region. Under excitation by incident light of 387 nm, the combination of free sulfhydryl and fluorescent dye CPM can emit excitation light of 436 nm. […] The free sulfhydryls originally located in the transmembrane region expose and combine with the fluorescent dye. And then the detector will detect changes in signal enhancement. Therefore, the thermal stability of membrane proteins can be determined according to the temperature (Tm) at the midpoint of changes in signal intensity.
Experimental steps: Upon preliminary purification, the obtained protein solution was transferred into a small concentration tube (100 kd, 500 ul) for concentration (1000 rcf, 12 min, 4° C.). After centrifugation, the concentration tube was taken out and flicked to prevent protein coagulation due to high local concentration. The final concentrated volume was about 50 μl. 117 μl of purified solution (volume is suitable to make the total volume up to 120 μl), 1 μl fluorescent dye cpm (in-house prepared) and 2 μl of concentrated protein solution (the amount of added protein is 3-5 μg according to the calculated concentration of the protein solution and the concentrated volume) were added to 2 ml Ependorf tube and incubated at room temperature for 20 min. And then the mixture was added to the cuvette (Qwan) and put in the testing equipment Cary, wherein the surface of the frosted glass faced out. The temperature was set in the range of 4-90° C. with 1° C. increase per minute and the program was run. Tm value can be obtained by processing the data and graph with a mapping software and can be used to compare the difference of protein thermal stability under different conditions.

A further data set relates to HIV-1SF162 virus strain. Nature of the data set: Inhibition activity on TZM-bl cells infected with HIV-1SF162.
A short description of data set [1]: Cytotoxicity (CC50) in TZM-bl cells. Format: cell-based. Conditions: human; TZM-bl cells (Table 3); read-out: CC50.
The target in a further data set is CYP2C19 (Homo sapiens (Human), UniProt P33261). Nature of the data set: CYP450 inhibition activity assay (Vivid kit) CYP2C19. Format: in vitro ADME. The note with it: CYP450 subtype (μM) 2C19 (IC50).
In another data set the target is CYP1A2 (Homo sapiens (Human), UniProt P05177). Nature of the data set: CYP450 inhibition activity assay (Vivid kit) CYP1A2. Conditions: CYP450 subtype (μM) 1A2 (IC50). It counts as in vitro ADME.
A further data set deals with CYP2D6 (Homo sapiens (Human), UniProt P10635). Nature of the data set: CYP450 inhibition activity assay (Vivid kit) CYP2D6. It counts as in vitro ADME. The note with it: CYP450 subtype (μM) 2D6 (IC50).
In the next data set the target is CYP2C9 (Homo sapiens (Human), UniProt P11712). Nature of the data set: CYP450 inhibition activity assay (Vivid kit) CYP2C9. Conditions: CYP450 subtype (μM) 2C9 (IC50). Format: in vitro ADME.
The conditions of data set [2]: marketed drug, literature value, species not stated; cited from earlier work.
For the next data set, the target named is CCR5 (Homo sapiens (Human), UniProt P51681). Nature of the data set: Calcium flux inhibition experiment. Format: cell-based. Background: Calcium assays in cells follow changes in intracellular calcium, usually with a dye or a luminescent sensor.
For the next data set, the system named is TZM-bl cells. Nature of the data set: Cytotoxicity (CC50) in TZM-bl cells. It counts as cell-based. Conditions: TZM-bl cells (Table 3).
The next data set has as its target hERG (Homo sapiens (Human), UniProt Q12809).
Where [3] appears, read: TZM-bl cells infected with HIV-1SF162.

In general, EC50 refers to the midpoint of the concentration-response curve. High values mean weaker potency, low ones greater potency. As a reminder, the CC50 is the concentration giving 50% cytotoxicity. By IC50 is commonly meant the point on the concentration scale where inhibition reaches its midpoint.

≈ marks a conversion by molar mass, not a printed value.

hERG, sequence (Q12809 whole entry): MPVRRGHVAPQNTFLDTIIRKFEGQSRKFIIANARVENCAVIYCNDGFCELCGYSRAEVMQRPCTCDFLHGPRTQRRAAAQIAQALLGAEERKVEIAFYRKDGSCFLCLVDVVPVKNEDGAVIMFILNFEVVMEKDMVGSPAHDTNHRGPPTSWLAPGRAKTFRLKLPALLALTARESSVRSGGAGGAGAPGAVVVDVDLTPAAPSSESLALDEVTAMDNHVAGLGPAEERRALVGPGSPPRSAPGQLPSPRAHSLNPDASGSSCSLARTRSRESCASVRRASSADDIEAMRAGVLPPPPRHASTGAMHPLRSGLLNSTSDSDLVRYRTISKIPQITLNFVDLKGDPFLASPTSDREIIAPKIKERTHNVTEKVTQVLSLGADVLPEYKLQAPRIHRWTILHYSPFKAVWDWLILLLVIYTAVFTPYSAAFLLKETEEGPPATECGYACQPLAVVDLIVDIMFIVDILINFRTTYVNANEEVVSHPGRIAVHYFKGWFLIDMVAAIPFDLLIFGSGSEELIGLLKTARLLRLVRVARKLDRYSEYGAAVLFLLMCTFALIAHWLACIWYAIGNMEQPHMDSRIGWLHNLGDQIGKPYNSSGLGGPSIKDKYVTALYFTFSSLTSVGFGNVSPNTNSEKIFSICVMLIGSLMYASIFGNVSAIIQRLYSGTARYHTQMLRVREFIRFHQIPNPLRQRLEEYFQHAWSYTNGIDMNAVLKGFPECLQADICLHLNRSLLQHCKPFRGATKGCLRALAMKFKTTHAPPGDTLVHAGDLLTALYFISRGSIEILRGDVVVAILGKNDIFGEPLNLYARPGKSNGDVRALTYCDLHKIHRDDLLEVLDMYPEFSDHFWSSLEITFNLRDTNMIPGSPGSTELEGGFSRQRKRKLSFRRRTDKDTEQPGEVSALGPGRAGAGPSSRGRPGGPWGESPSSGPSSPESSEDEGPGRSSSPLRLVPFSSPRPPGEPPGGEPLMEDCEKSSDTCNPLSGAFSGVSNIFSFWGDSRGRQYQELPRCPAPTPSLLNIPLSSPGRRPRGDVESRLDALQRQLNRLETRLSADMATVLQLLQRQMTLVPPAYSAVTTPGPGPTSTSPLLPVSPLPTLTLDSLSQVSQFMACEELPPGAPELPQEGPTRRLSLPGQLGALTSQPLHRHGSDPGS
CCR5, sequence (P51681 whole entry): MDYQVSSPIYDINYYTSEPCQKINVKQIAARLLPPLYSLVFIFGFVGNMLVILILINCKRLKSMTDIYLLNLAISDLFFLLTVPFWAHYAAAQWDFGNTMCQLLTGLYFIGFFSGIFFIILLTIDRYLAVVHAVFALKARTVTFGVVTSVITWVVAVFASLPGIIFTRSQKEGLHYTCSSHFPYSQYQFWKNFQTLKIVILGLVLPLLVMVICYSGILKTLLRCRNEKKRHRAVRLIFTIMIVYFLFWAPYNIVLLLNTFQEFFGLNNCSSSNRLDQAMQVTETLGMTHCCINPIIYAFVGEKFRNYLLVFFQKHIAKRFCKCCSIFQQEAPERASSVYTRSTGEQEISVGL
CYP2C19, sequence (P33261 whole entry): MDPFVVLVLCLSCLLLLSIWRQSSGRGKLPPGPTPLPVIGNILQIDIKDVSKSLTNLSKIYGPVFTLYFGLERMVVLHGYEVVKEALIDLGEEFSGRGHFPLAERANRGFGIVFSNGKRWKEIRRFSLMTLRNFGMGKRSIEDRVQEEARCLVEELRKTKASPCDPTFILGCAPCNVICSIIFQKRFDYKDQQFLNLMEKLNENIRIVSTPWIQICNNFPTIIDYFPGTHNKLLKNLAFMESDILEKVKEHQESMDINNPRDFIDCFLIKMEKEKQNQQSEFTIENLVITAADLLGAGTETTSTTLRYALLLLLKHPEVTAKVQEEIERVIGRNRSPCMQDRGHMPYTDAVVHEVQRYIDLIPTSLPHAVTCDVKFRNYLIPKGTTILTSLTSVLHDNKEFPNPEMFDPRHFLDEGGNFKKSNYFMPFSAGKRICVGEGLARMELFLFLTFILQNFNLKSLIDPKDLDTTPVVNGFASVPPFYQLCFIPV
CYP1A2, sequence (P05177 whole entry): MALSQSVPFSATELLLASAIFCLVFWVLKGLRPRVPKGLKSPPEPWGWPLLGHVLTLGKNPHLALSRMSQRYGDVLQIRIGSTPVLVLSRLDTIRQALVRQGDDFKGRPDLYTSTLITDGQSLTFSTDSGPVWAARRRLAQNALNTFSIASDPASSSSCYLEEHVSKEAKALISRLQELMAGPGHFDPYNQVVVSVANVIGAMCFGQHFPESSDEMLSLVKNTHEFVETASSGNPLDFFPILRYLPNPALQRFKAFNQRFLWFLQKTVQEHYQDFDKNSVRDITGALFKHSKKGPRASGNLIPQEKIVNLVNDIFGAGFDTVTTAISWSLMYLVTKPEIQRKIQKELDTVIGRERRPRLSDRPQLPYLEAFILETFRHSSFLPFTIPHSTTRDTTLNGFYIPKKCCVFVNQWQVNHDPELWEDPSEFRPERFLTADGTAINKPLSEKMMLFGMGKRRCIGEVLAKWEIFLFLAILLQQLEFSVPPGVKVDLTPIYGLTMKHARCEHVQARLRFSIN
CYP2D6, sequence (P10635 whole entry): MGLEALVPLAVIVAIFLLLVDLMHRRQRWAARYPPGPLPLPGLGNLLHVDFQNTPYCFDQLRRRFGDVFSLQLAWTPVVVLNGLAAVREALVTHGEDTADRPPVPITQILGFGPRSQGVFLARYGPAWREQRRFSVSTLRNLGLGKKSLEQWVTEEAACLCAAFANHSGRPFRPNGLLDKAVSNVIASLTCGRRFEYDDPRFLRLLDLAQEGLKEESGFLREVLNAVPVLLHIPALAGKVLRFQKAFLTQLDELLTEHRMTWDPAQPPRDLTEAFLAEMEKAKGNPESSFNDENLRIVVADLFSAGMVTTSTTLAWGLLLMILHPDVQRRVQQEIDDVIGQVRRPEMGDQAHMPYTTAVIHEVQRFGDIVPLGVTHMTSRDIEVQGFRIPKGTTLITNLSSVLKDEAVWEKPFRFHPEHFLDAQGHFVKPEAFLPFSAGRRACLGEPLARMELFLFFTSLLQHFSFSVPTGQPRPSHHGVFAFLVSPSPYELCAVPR
CYP2C9, sequence (P11712 whole entry): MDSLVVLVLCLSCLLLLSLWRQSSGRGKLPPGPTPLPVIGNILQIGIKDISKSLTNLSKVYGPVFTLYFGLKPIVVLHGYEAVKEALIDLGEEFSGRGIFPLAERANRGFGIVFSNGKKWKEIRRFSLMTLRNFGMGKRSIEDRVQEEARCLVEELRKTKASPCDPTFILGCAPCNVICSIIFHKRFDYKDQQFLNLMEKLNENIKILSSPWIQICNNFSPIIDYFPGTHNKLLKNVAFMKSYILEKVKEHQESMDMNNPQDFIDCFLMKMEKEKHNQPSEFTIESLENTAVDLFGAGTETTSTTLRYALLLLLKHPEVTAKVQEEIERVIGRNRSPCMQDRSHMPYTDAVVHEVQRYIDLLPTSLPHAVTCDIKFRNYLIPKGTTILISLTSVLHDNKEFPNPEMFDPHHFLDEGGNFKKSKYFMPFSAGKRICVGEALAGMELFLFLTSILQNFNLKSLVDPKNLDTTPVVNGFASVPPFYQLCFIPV
Protocol for CYP1A2: (§1) VividR CYP450 Screening Kits can be used to evaluate the effects on CYP450 subtypes (CYP1A2, CYP2D6, CYP2C9, CYP2C19, CYP3A4-T and CYP3A4-M) and the substrate VividR in the kit can be metabolizd to a product which can emit strong fluorescence in an aqueous solution by specific CYP450 enzymes.
(§2) The compounds to be tested and positive compound were added to corresponding wells and DMSO was added to control wells.
(§3) CYP450 enzyme was added to the compounds to be tested, positive compound and DMSO control wells. The enzyme dilution was used to replace enzyme and added to DMSO wells as test background. The mixture was vibrated and mixed for 1 minute, and then incubated at room temperature for 20 minutes.
(§4) NADP^+ regeneration system and the substrate were added to initiate the reaction and incubated at room temperature for 60 minutes.
Protocol for CYP2C19: as §1, §2, §3, §4
Protocol for CYP2C9: as §1, §2, §3, §4
Protocol for CYP2D6: as §1, §2, §3, §4
Protocol for hERG: CHO-hERG cells which have been incubated overnight were added with sample buffer and incubated for 90 minutes at room temperature in darkness.
The sample buffer was removed and assay buffer was added.
The compound is added to the cell plate and incubated for 20 minutes in darkness.
Cell plate was placed into FDSS. The fluorescence signal was recorded every second for 10 seconds. Exciting buffer was added to the cells at the 10th second and the fluorescence signal was recorded every second for 180 seconds

With `Cc1nnc(C(C)C)n1[C@@H]1C[C@H]2CC[C@@H](C1)N2CC[C@H](NC(=O)C1CCC(F)(F)CC1)c1ccccc1` [Maraviroc, reference compound], the “Tm (° C.)” value in the data set on CCR5 protein was 72.17 °C. This compound also came in with a concentration giving a half-maximal response (EC50) in the data set on HIV-1SF162 virus strain (Human immunodeficiency virus 1, TZM-bl) of 8.14 ng/mL (≈ 0.0158 µM). Also, the half-maximal cytotoxic concentration (CC50) in [1] was over 200 µg/mL. Moreover, the IC50 on CYP2C19 was over 25 µM; against CYP1A2, over 25 µM; at CYP2D6 it was over 25 µM; against CYP2C9, 14.4 µM. The bioavailability as reported in data set [2] is 5%.

Take “4-ethyl-N-[(1S)-3-[exo-3-(3-isopropyl-5-methyl-4H-1,2,4-triazol-4-yl)-8-azabicyclo[3.2.1]octane-8-yl]-1-(thiophen-3-yl)propyl]cyclopentane-1-carboxamide [Compound 20]”: the half-maximal inhibitory concentration (IC50) at CCR5 (HEK293/CCR5-Gα16 cell line, calcium flux, read-out: CCR5 IC50) amounted to 5.14 nM. For the same compound, at CCR5 (conclusion from Table 1), the “calcium influx inhibition effect in words, versus positive control compounds” value is listed as “better than the positive control compounds”. Moreover, in the data set with CCR5 protein (conclusion from Table 2), the “protein stability effect in words, versus positive control compound” value is “comparable with the positive control compound”. For the same compound, in the data set with CCR5 protein, the “Tm (° C.)” value is 70.27 °C. Also, in the data set with HIV-1SF162 virus strain (setting [3]), the half-maximal effective concentration (EC50) turned out to be 4.87 ng/mL and the “therapeutic index (TI)” value worked out at 14308.01. For the same compound, the cytotoxic concentration (CC50) in the data set on TZM-bl cells is 69.68 µg/mL. For the same compound, at hERG, the half-inhibitory concentration (IC50) was determined as 14.4 µM and the “hERG inhibition activity in words, versus positive control compounds” value is “better that those of positive control compounds”.
